From US20240390465A1, “Endostatin Peptides for the Treatment of Tumors, Fibrosis and Acute Lung Injury” (MUSC Foundation for Research Development, priority 2021, published 2024)
Residues, ends and D or L forms follow the SMILES beside them. *: point of attachment. Biotin = O=C1N[C@H]2[C@H](CS[C@H]2CCCCC(=O)*)N1; Ahx = NCCCCCC(=O)O

What was measured:
[1] = tested on: fibroblasts from lungs of patients with systemic sclerosis (SSc); assay: SMA and Collagen 1A2 RNA in SSc lung fibroblasts; format: cell-based, human
Procedure: Fibroblasts were treated with TGFbeta with or without peptide Bio96-17 for 48 hours. RNA was extracted and levels of alpha smooth muscle actin (SMA) measured by qRT-PCR.
SSc fibroblasts were treated with 10 μg/ml BioE4-03 for 72 hours. RNA was extracted and used to measure SMA and Collagen 1A2.

[2] = tested on: me-38 colon adenocarcinoma tumor cells; assay: Colon adenocarcinoma tumor growth in mice, peptide by oral gavage; format: in vivo; details: sMIC tolerant transgenic mice, 100 μg/mouse oral gavage twice/week
Procedure: For each of the experiments, descriptive statistics (means and standard deviations) for tumor volumes were calculated over time for each experimental group (i.e. Experiment 1: Control vs. BioE4 (FIG. 1); Experiment 2: PBS, Bio96, and BioE4-03 (FIG. 5)). Since tumor growth tends to be curvilinear, general linear mixed models (GLMMs) were created to estimate treatment-specific growth curves over time and to make comparisons between the peptide treatments and control. Separate GLMMs were constructed for each experiment, and each GLMM included random effects for each mouse, to control for the fact that the repeated volume measurements within a given mouse were correlated with one another. […] If a mouse's tumor grew too large, it was sacrificed; however, all tumor volumes measured prior to sacrifice were included in the modeling process. […]
sMIC tolerant transgenic (MB481 strain) mice (Liu et al, Perturbation of NK cell peripheral homeostasis accelerates prostate carcinoma metastasis. J. Clin. Invest. 123:4410, 2013) were injected with 1×10^5 me-38 colon adenocarcinoma tumor cells via subcutaneous injection When tumor size reached approximately 75 mm^3, treatment was started. start treatment at four group. […] Tumor volume was measured 3 times per week. […]

[3] = tested on: tumors; assay: Histologic analysis of tumors (H&E, Masson Trichrome); format: in vivo, mouse
Procedure: Histological analysis of tumors treated with vehicle alone, or with BioE4-03 or Bio96 peptides was performed.

[4] = tested on: TRAMP C-2 mouse prostate tumor cells; assay: Prostate tumor growth in mice, peptide by oral gavage; format: in vivo; details: C57BL6 mice, TRAMP C-2 tumors, 50 μg/dose oral gavage twice per week, vs water control
Procedure: For each of the experiments, descriptive statistics (means and standard deviations) for tumor volumes were calculated over time for each experimental group (i.e. Experiment 1: Control vs. BioE4 (FIG. 1); Experiment 2: PBS, Bio96, and BioE4-03 (FIG. 5)). Since tumor growth tends to be curvilinear, general linear mixed models (GLMMs) were created to estimate treatment-specific growth curves over time and to make comparisons between the peptide treatments and control. Separate GLMMs were constructed for each experiment, and each GLMM included random effects for each mouse, to control for the fact that the repeated volume measurements within a given mouse were correlated with one another. Tumor volume served as the dependent variable in each model, while time (in days), time^2, treatment, treatment×time, and treatment×time^2 were included as independent variables. Using these models, the estimated mean tumor volumes at specific selected time points and the mean rate of change in the tumor volumes at specific selected time points were compared. If a mouse's tumor grew too large, it was sacrificed; however, all tumor volumes measured prior to sacrifice were included in the modeling process. […]
Two groups of wild type C57BL6 mice from Jax Labs were injected with TRAMP C-2 mouse prostate tumor cells in the right flank. […] Tumors were measured 3 times/week. […]

[5] = tested on: fibroblasts from lungs of patients with Idiopathic Pulmonary Fibrosis (IPF); assay: SMA and Collagen 1A2 RNA in IPF lung fibroblasts; format: cell-based, human; details: IPF lung fibroblasts (FIG. 17)

## CC(C)C[C@H](NC(=O)[C@H](CC(C)C)NC(=O)[C@H](CCCNC(=N)N)NC(=O)CNC(=O)CNC(=O)[C@H](CC(C)C)NC(=O)[C@H](CC(C)C)NC(=O)[C@H](CO)NC(=O)[C@H](CO)NC(=O)[C@H](C)NC(=O)[C@H](CCC(N)=O)NC(=O)CNC(=O)[C@@H](NC(=O)[C@H](C)NC(=O)CCCC[C@@H]1SC[C@@H]2NC(=O)N[C@@H]21)[C@@H](C)O)C(=O)NCC(=O)N[C@@H](CCC(N)=O)C(=O)N[C@@H](CO)C(=O)N[C@@H](C)C(=O)N[C@@H](C)C(=O)N[C@@H](CO)C(=O)N[C@@H](CS)C(=O)N[C@@H](Cc1c[nH]cn1)C(=O)N[C@@H](Cc1c[nH]cn1)C(=O)N[C@@H](C)C(N)=O [Bio96-17] (Biotin-ATGQASSLLGGRLLGQSAASCHHA-NH2)
[1]; Bio96-17 treatment (FIG. 15)
  Coll1A2 levels: significant reduction
  SMA levels: significant reduction

## CC(C)C[C@H](NC(=O)[C@H](CC(C)C)NC(=O)[C@H](CO)NC(=O)[C@H](CO)NC(=O)[C@H](C)NC(=O)[C@H](CCC(N)=O)NC(=O)CNC(=O)[C@@H](NC(=O)[C@H](C)NC(=O)CCCC[C@@H]1SC[C@@H]2NC(=O)N[C@@H]21)[C@@H](C)O)C(N)=O [Bio96, Biotin-NH2-ATGQASSLL-CONH2] (Biotin-ATGQASSLL-NH2)
[2]; PBS control 151.1 mm^3 per day
  mean rate of increase in the tumor volume at day 21 (model-based estimate): 90.6 mm^3 per day
[2]; PBS control 1492.1 mm^3
  mean tumor volume at day 21 (model-based estimate): 871.4 mm^3
[3]; H&E staining, tumors from treated mice
  tumor cell arrangement: looser cell arrangement
[3]; Masson Trichrome stain, compared to vehicle treated mice
  collagen bundles in the tumors: thinner collagen bundles

## Biotin-SYCETWRTEAPSATGQASSLLGGRLLGQSAASCHHAYIVLCIENSFMT-NH2 (cysteines drawn unpaired) [BioE4]
[4]
  mean rate of increase in the tumor volume on day 15 (model-based estimate): significantly (p=0.02) greater in the Control group when compared to the BioE4 group
  mean tumor volume at day 15 (model-based estimate): significantly (p=0.0001) greater in the Control group when compared to the BioE4 group

## CC(C)C[C@H](NC(=O)[C@H](CC(C)C)NC(=O)[C@H](CCCNC(=N)N)NC(=O)CNC(=O)CNC(=O)[C@H](CC(C)C)NC(=O)[C@H](CC(C)C)NC(=O)[C@H](CO)NC(=O)[C@H](CO)NC(=O)[C@H](C)NC(=O)[C@H](CCC(N)=O)NC(=O)CNC(=O)[C@@H](NC(=O)[C@H](C)NC(=O)[C@H](CO)NC(=O)[C@@H]1CCCN1C(=O)[C@H](C)NC(=O)[C@H](CCC(=O)O)NC(=O)[C@@H](NC(=O)[C@H](CCCNC(=N)N)NC(=O)[C@H](Cc1c[nH]c2ccccc12)NC(=O)[C@@H](NC(=O)[C@H](CCC(=O)O)NC(=O)[C@H](CS)NC(=O)[C@H](Cc1ccc(O)cc1)NC(=O)[C@H](CO)NC(=O)CCCCCNC(=O)CCCC[C@@H]1SC[C@@H]2NC(=O)N[C@@H]21)[C@@H](C)O)[C@@H](C)O)[C@@H](C)O)C(=O)NCC(=O)N[C@@H](CCC(N)=O)C(=O)N[C@@H](CO)C(=O)N[C@@H](C)C(=O)N[C@@H](C)C(=O)N[C@@H](CO)C(=O)N[C@@H](CS)C(=O)N[C@@H](Cc1c[nH]cn1)C(=O)N[C@@H](Cc1c[nH]cn1)C(=O)N[C@@H](C)C(N)=O [BioE4-03] ({Biotin-Ahx}-SYCETWRTEAPSATGQASSLLGGRLLGQSAASCHHA-NH2)
[1]; 10 μg/ml, 72 hours (FIG. 16)
  Coll1A2 levels: significant reduction
  SMA levels: significant reduction
[5]
  Coll1A2 levels: trend towards decrease
  SMA levels: trend towards decrease
